This passage reports IC50 results from patent US8637525B2, “Compounds for the reduction of beta-amyloid production” (Bristol-Myers Squibb Company, priority 2009, dated 2014).

Structures can show the parent of a compound that is named as a salt. Some results are limits rather than exact numbers.

Usually IC50 stands for the concentration that gives 50% inhibition.

The first assay relates to Aβ1-42 production. Nature of the assay: Cellular assay for inhibition of Aβ1-42 production (H4 APP751 SWE clone 8.20). The assay is classed as cell-based. Conditions: 19 h, H4 APP751 SWE clone 8.20 cells, 19 h incubation; class symbols; read-out: Activity Rating (Aβ42 cellular IC50). The protocol:
Cellular Assays for Inhibition of Aβ1-40 and Aβ1-42 Production
H4 cells stably transfected with APP751 containing the Swedish mutation (H4 APP751 SWE clone 8.20, developed at BMS) were maintained in log phase through twice weekly passage at a 1:20 split. […] Following incubation for 19 h in 5% CO2 at 37° C., plates were briefly centrifuged (1000 rpm, 5 min). A 10 μl aliquot from each well was transferred to a second assay plate (Costar 3709) for Aβ40 measurements. Antibody cocktails were freshly prepared by dilution into 40 mM Tris-HCl (pH 7.4) with 0.2% BSA and added to assay plates. For Aβ42 measurements, antibodies specific for the Aβ42 neoepitope (565, developed at BMS; conjugated to the Wallac reagent (Perkin Elmer)) and the N-terminal sequence of Aβ peptide (26D6, developed at SIBIA; conjugated to APC (Perkin Elmer)) were mixed and 20 μl of the mixture was added to each well of the incubated cell plate yielding a final concentration of 0.8 ng/well 565 and 75 ng/well 26D6. For the Aβ40 measurements, antibodies specific for the Aβ40 neoepitope (TSD, developed at BMS; conjugated to the Wallac reagent (Perkin Elmer)) and 26D6 as described above were mixed and 20 μl of the mixture was added to the 10 μl aliquots which had been removed previously from the cell plate yielding a final concentration of 1.6 ng/well TSD and 17.5 ng/well 26D6. Assay plates containing antibodies were sealed with aluminum foil and incubated overnight at 4° C. Signal was determined using a Viewlux counter (Perkin Elmer) and IC50 values determined using curve fitting in CurveMaster (Excel Fit based).
For the molecule `CNc1nc(Nc2ccc(NC3(C#N)CC3)c(OC)c2)nc2c1CCC2c1ccccc1` (centres unmarked) [Example 248, 1-(2-methoxy-4-(4-(methylamino)-7-phenyl-6,7-dihydro-5H-cyclopenta[d]pyrimidin-2-ylamino)phenylamino)cyclopropanecarbonitrile], the IC50 was above 1000 nM.

`CCNc1nc(Nc2ccc(-n3cnc(Cl)c3)c(OC)c2)nc2c1CN(S(C)(=O)=O)CC2c1ccccc1` (centres unmarked) [Example 134, N2-(4-(4-chloro-1H-imidazol-1-yl)-3-methoxyphenyl)-N4-ethyl-6-(methylsulfonyl)-8-phenyl-5,6,7,8-tetrahydropyrido[4,3-d]pyrimidine-2,4-diamine]: the IC50 is 1.5 to 9.9 nM.

As to `COc1cc(Nc2nc3c(c(N4CCC(F)(F)CC4)n2)CCC3c2ccc(F)cc2)ccc1-n1cnc(Cl)c1` (racemic) [Example 39, N-(4-(4-chloro-1H-imidazol-1-yl)-3-methoxyphenyl)-4-(4,4-difluoropiperidin-1-yl)-7-(4-fluorophenyl)-6,7-dihydro-5H-cyclopenta[d]pyrimidin-2-amine], the IC50 lay within 10 to 100 nM.

On to `CNc1nc(Nc2ccc(-c3cnn(C)c3)c(OC)c2)nc2c1CCC2c1ccccc1` (centres unmarked) [Example 209, N2-(3-methoxy-4-(1-methyl-1H-pyrazol-4-yl)phenyl)-N4-methyl-7-phenyl-6,7-dihydro-5H-cyclopenta[d]pyrimidine-2,4-diamine], for which the IC50 lay within 1.5 to 9.9 nM.

In the case of `COc1cc(Nc2nc3c(c(N4CCC[C@@H]4C)n2)COC3c2ccc(F)cc2)ccc1-n1cnc(Cl)c1` (single isomer, unassigned) [Example 74A], the IC50 was 10 to 100 nM.

For the molecule `COc1cc(Nc2nc(NCCCO)c3c(n2)C(c2ccc(F)cc2)CC3)ccc1-n1cnc(Cl)c1` (racemic) [Example 43, 3-(2-(4-(4-chloro-1H-imidazol-1-yl)-3-methoxyphenylamino)-7-(4-fluorophenyl)-6,7-dihydro-5H-cyclopenta[d]pyrimidin-4-ylamino)propan-1-ol], the half-maximal inhibitory concentration (IC50) was 1.5 to 9.9 nM.

Take `CNc1nc(Nc2ccc(-n3cnc(Cl)c3)c(OC)c2)nc2c1CCOC2c1ccccc1` (centres unmarked) [Example 85, N2-(4-(4-chloro-1H-imidazol-1-yl)-3-methoxyphenyl)-N4-methyl-8-phenyl-6,8-dihydro-5H-pyrano[3,4-d]pyrimidine-2,4-diamine]: the half-maximal inhibitory concentration (IC50) was 1.5 to 9.9 nM.

For `CNc1nc(Nc2ccc3[nH]c(C)cc3c2)nc2c1CCC2c1ccccc1` (centres unmarked) [Example 249, N4-methyl-N2-(2-methyl-1H-indol-5-yl)-7-phenyl-6,7-dihydro-5H-cyclopenta[d]pyrimidine-2,4-diamine], the IC50 was above 1000 nM.

Take `CNc1nc(Nc2ccc(-c3ccnc(Cl)c3)c(OC)c2)nc2c1CCC2c1ccccc1` (centres unmarked) [Example 278, N2-(4-(2-chloropyridin-4-yl)-3-methoxyphenyl)-N4-methyl-7-phenyl-6,7-dihydro-5H-cyclopenta[d]pyrimidine-2,4-diamine]: the IC50 lay within 10 to 100 nM.

Consider `CNc1nc(Nc2ccc3c(c2)CCNC3)nc2c1CCC2c1ccccc1` (centres unmarked) [Example 245, N4-methyl-7-phenyl-N2-(1,2,3,4-tetrahydroisoquinolin-6-yl)-6,7-dihydro-5H-cyclopenta[d]pyrimidine-2,4-diamine], for which the IC50 is above 1000 nM.

On to `COc1cc(Nc2nc3c(c(N(C)C)n2)CCC3c2ccc(Cl)cc2)ccc1-n1cnc(Cl)c1` (centres unmarked) [Example 92, N^2-(4-(4-Chloro-1H-imidazol-1-yl)-3-methoxyphenyl)-7-(4-chlorophenyl)-N^4,N^4-dimethyl-6,7-dihydro-5H-cyclopenta[d]pyrimidine-2,4-diamine], for which the IC50 is 10 to 100 nM.

For `COc1cc(Nc2nc3c(c(N4CC(F)(F)C4)n2)CCC3c2ccc(F)cc2)ccc1-n1cnc(Cl)n1` (racemic) [Example 17, N-(4-(3-chloro-1H-1,2,4-triazol-1-yl)-3-methoxyphenyl)-4-(3,3-difluoroazetidin-1-yl)-7-(4-fluorophenyl)-6,7-dihydro-5H-cyclopenta[d]pyrimidin-2-amine], the IC50 was in the range of 10 to 100 nM.

As to `CNc1nc(Nc2ccc(-n3cnc(C)n3)c(OC)c2)nc2c1CCC2c1ccc(F)cc1F` (centres unmarked) [Example 193, 7-(2,4-difluorophenyl)-N2-(3-methoxy-4-(3-methyl-1H-1,2,4-triazol-1-yl)phenyl)-N4-methyl-6,7-dihydro-5H-cyclopenta[d]pyrimidine-2,4-diamine], the IC50 fell in the range of 10 to 100 nM.

The same assay, now with this note: 19 h, H4 APP751 SWE clone 8.20 cells, 19 h incubation; read-out: Activity Rating (Aβ42 cellular IC50), numeric value.
Consider `C#Cc1ccc(Nc2nc(NC)c3c(n2)C(c2ccc(F)cc2)CC3)cc1` (centres unmarked) [Example 259, N2-(4-ethynylphenyl)-7-(4-fluorophenyl)-N4-methyl-6,7-dihydro-5H-cyclopenta[d]pyrimidine-2,4-diamine], for which the IC50 stood at 940 nM.

In the case of `CCC(COC)Nc1nc(Nc2ccc(-n3cnc(Cl)c3)c(OC)c2)nc2c1CCC2c1ccc(F)cc1` [Example 48, N2-(4-(4-chloro-1H-imidazol-1-yl)-3-methoxyphenyl)-7-(4-fluorophenyl)-N4-((R)-1-methoxybutan-2-yl)-6,7-dihydro-5H-cyclopenta[d]pyrimidine-2,4-diamine, 2 TFA], the IC50 is 18 nM.

Consider `CNc1nc(Nc2ccc3c(ccn3C)c2)nc2c1CCC2c1ccccc1` (centres unmarked) [Example 254, N4-methyl-N2-(1-methyl-1H-indol-5-yl)-7-phenyl-6,7-dihydro-5H-cyclopenta[d]pyrimidine-2,4-diamine], for which the IC50 came out at 1000 nM.

Staying with this assay, now noted: H4 APP751 SWE clone 8.20 cells, 19 h incubation; class symbols; read-out: Activity Rating (Aβ42 cellular IC50).
For `CNc1nc(Nc2ccc(-n3cnc(Cl)c3)c(OC)c2)nc2c1CCC2c1ccc(OC(F)(F)F)cc1` (single isomer, unassigned) [Example 97B, N^2-(4-(4-chloro-1H-imidazol-1-yl)-3-methoxyphenyl)-N^4-methyl-7-(4-(trifluoromethoxy)phenyl)-6,7-dihydro-5H-cyclopenta[d]pyrimidine-2,4-diamine], the IC50 is 10 to 100 nM.

As for `CNc1nc(Nc2ccc(-n3cnc(Cl)c3)c(OC)c2)nc2c1COCC2c1ccc(F)c(F)c1` (centres unmarked) [Example 115B, N2-(4-(4-chloro-1H-imidazol-1-yl)-3-methoxyphenyl)-8-(3,4-difluorophenyl)-N4-methyl-7,8-dihydro-5H-pyrano[4,3-d]pyrimidine-2,4-diamine], the IC50 lay in the range of 10 to 100 nM.

In the case of `CCNc1nc(Nc2ccc(-n3cnc(Cl)c3)c(OC)c2)nc2c1CCN(C(=O)OC)C2c1ccc(F)cc1` (centres unmarked) [Example 170, methyl 2-(4-(4-chloro-1H-imidazol-1-yl)-3-methoxyphenylamino)-4-(ethylamino)-8-(4-fluorophenyl)-5,6-dihydropyrido[3,4-d]pyrimidine-7(8H)-carboxylate], the IC50 is 10 to 100 nM.

For the molecule `CNc1nc(Nc2ccc(-n3ncnc3C)c(F)c2)nc2c1CCC2c1ccccc1` (single isomer, unassigned) [Example 3A, N^2-(3-fluoro-4-(5-methyl-1H-1,2,4-triazol-1-yl)phenyl)-N^4-methyl-7-phenyl-6,7-dihydro-5H-cyclopenta[d]pyrimidine-2,4-diamine], the IC50 fell in the range of 1.5 to 9.9 nM.

For `CNc1nc(Nc2ccc(-n3cnc(Cl)c3)c(OC)c2)nc2c1CCCC2c1ccccc1` (centres unmarked) [Example 203B, N2-(4-(4-chloro-1H-imidazol-1-yl)-3-methoxyphenyl)-N4-methyl-8-phenyl-5,6,7,8-tetrahydroquinazoline-2,4-diamine], the IC50 was in the range of 10 to 100 nM.

Take `COc1cc(Nc2nc3c(c(N4CCC(F)C4)n2)CCOC3c2ccc(F)cc2)ccc1-n1cnc(Cl)c1` (stereo in doubt) [Example 91B, N-(4-(4-chloro-1H-imidazol-1-yl)-3-methoxyphenyl)-8-(4-fluorophenyl)-4-((S)-3-fluoropyrrolidin-1-yl)-6,8-dihydro-5H-pyrano[3,4-d]pyrimidin-2-amine]: the IC50 fell in the range of 100 to 1000 nM.

Consider `CCN(C)c1nc(Nc2ccc(-n3cnc(Cl)c3)c(OC)c2)nc2c1COCC2c1ccccc1` (single isomer, unassigned) [Example 52A, N^2-(4-(4-Chloro-1H-imidazol-1-yl)-3-methoxyphenyl)-N^4-ethyl-N^4-methyl-8-phenyl-7,8-dihydro-5H-pyrano[4,3-d]pyrimidine-2,4-diamine], for which the IC50 is 1.5 to 9.9 nM.

Consider `CCNc1nc(Nc2ccc(-n3ncnc3C)c(F)c2)nc2c1CN(S(C)(=O)=O)CC2c1ccccc1` (centres unmarked) [Example 140, N4-ethyl-N2-(3-fluoro-4-(5-methyl-1H-1,2,4-triazol-1-yl)phenyl)-6-(methylsulfonyl)-8-phenyl-5,6,7,8-tetrahydropyrido[4,3-d]pyrimidine-2,4-diamine], for which the IC50 was in the range of 10 to 100 nM.

With `CCNc1nc(Nc2ccc(-n3cnc(Cl)c3)c(OC)c2)nc2c1CN(CC(F)(F)F)CC2c1ccccc1` (centres unmarked) [Example 196A], the IC50 was 1.5 to 9.9 nM.

The same assay, now with this note: H4 APP751 SWE clone 8.20 cells, 19 h incubation; read-out: Activity Rating (Aβ42 cellular IC50), numeric value.
As to `COc1cc(Nc2nc3c(c(N4CC(C)(OC)C4)n2)CCC3c2ccc(F)cc2)ccc1-n1cnc(C)n1` (centres unmarked) [Example 192B, 7-(4-fluorophenyl)-4-(3-methoxy-3-methylazetidin-1-yl)-N-(3-methoxy-4-(3-methyl-1H-1,2,4-triazol-1-yl)phenyl)-6,7-dihydro-5H-cyclopenta[d]pyrimidin-2-amine], the IC50 is 16 nM.
